Experimental data published in PMC7523345 (Investigational new drugs, 2018).
Entries after “also recorded” stand apart in the source; their conditions may differ.

Assay: Phase I dose escalation study: safety, tolerability, DLT and MTD
Format: in vivo

For `Cc1cccc2c1NC(=O)[C@@H](NC(=O)[C@H](CCC(F)(F)F)[C@H](CCC(F)(F)F)C(N)=O)N=C2c1cccc(F)c1` [BMS-986115], the “Hypokalaemia (drug related AE, Grade 3 and 4)” value (Arm B BIW 4 mg (N = 2)) was 0 n (%), the “Hypokalaemia (drug related AE, all grades)” value (Arm B BIW 4 mg (N = 2)) was 1 (50) n (%) and the “Hyponatraemia (drug related AE, Grade 3 and 4)” value (Arm B BIW 4 mg (N = 2)) was 0 n (%). The “Hyponatraemia (drug related AE, all grades)” value (Arm B BIW 4 mg (N = 2)) was 0 n (%), the “Hypophosphataemia (drug related AE, Grade 3 and 4)” value (Arm B BIW 4 mg (N = 2)) was 1 (50) n (%) and the “Hypophosphataemia (drug related AE, all grades)” value (Arm B BIW 4 mg (N = 2)) was 1 (50) n (%). For the same compound, the “Ileus (drug related AE, Grade 3 and 4)” value (Arm B BIW 4 mg (N = 2)) was 0 n (%), the “Increased upper airway secretion (drug related AE, all grades)” value (Arm B BIW 4 mg (N = 2)) was 1 (50) n (%) and the “Laryngeal pain (drug related AE, all grades)” value (Arm B BIW 4 mg (N = 2)) was 0 n (%). For the same compound, the “Leucocytosis (drug related AE, Grade 3 and 4)” value (Arm B BIW 4 mg (N = 2)) was 0 n (%), the “Mouth ulceration (drug related AE, all grades)” value (Arm B BIW 4 mg (N = 2)) was 0 n (%) and the “Nausea (drug related AE, Grade 3 and 4)” value (Arm B BIW 4 mg (N = 2)) was 0 n (%). The “Nausea (drug related AE, all grades)” value (Arm B BIW 4 mg (N = 2)) was 0 n (%), the “Pruritus (drug related AE, Grade 3 and 4)” value (Arm B BIW 4 mg (N = 2)) was 0 n (%) and the “Pruritus (drug related AE, all grades)” value (Arm B BIW 4 mg (N = 2)) was 1 (50) n (%). For the same compound, the “Pulmonary embolism (drug related AE, Grade 3 and 4)” value (Arm B BIW 4 mg (N = 2)) was 0 n (%), the “Rash (drug related AE, all grades)” value (Arm B BIW 4 mg (N = 2)) was 0 n (%) and the “Rash maculopapular (drug related AE, all grades)” value (Arm B BIW 4 mg (N = 2)) was 1 (50) n (%). The “Sinusitis (drug related AE, all grades)” value (Arm B BIW 4 mg (N = 2)) was 0 n (%), the “Urticaria (drug related AE, Grade 3 and 4)” value (Arm B BIW 4 mg (N = 2)) was 0 n (%) and the “Vision blurred (drug related AE, all grades)” value (Arm B BIW 4 mg (N = 2)) was 0 n (%). The “Vomiting (drug related AE, Grade 3 and 4)” value (Arm B BIW 4 mg (N = 2)) was 0 n (%), the “Vomiting (drug related AE, all grades)” value (Arm B BIW 4 mg (N = 2)) was 0 n (%) and the “Weight decreased (drug related AE, all grades)” value (Arm B BIW 4 mg (N = 2)) was 0 n (%). For the same compound, the “Description of DLT” value (Arm B BIW 8 mg) was “Gr 3 diarrhoea; Gr 3 nausea/dehydration/anorexia with Gr 2 fatigue; also recorded: G3 diarrhoea; also recorded: G3 nausea/dehydration/anorexia”, the “Description of study drug toxicity that led to treatment discontinuation” value (Arm B BIW 8 mg) was “G3 Diarrhoea (N = 1); also recorded: G3 Dehydration and anorexia (N = 1)” and the “Abdominal distension (drug related AE, all grades)” value (Arm B BIW 8 mg (N = 8)) was 0 n (%). The “Abdominal pain (drug related AE, Grade 3 and 4)” value (Arm B BIW 8 mg (N = 8)) was 0 n (%), the “Abdominal pain (drug related AE, all grades)” value (Arm B BIW 8 mg (N = 8)) was 0 n (%) and the “Blood creatinine increased (drug related AE, all grades)” value (Arm B BIW 8 mg (N = 8)) was 1 (13) n (%). For the same compound, the “Colitis (drug related AE, Grade 3 and 4)” value (Arm B BIW 8 mg (N = 8)) was 0 n (%), the “Cough (drug related AE, Grade 3 and 4)” value (Arm B BIW 8 mg (N = 8)) was 0 n (%) and the “Cough (drug related AE, all grades)” value (Arm B BIW 8 mg (N = 8)) was 1 (13) n (%). The “Decreased Appetite (drug related AE, Grade 3 and 4)” value (Arm B BIW 8 mg (N = 8)) was 1 (13) n (%), the “Decreased Appetite (drug related AE, all grades)” value (Arm B BIW 8 mg (N = 8)) was 5 (63) n (%) and the “Dehydration (drug related AE, Grade 3 and 4)” value (Arm B BIW 8 mg (N = 8)) was 1 (13) n (%). The “Dehydration (drug related AE, all grades)” value (Arm B BIW 8 mg (N = 8)) was 2 (25) n (%), the “Dermatitis acneiform (drug related AE, all grades)” value (Arm B BIW 8 mg (N = 8)) was 0 n (%) and the “Diarrhoea (drug related AE, Grade 3 and 4)” value (Arm B BIW 8 mg (N = 8)) was 2 (25) n (%). For the same compound, the “Diarrhoea (drug related AE, all grades)” value (Arm B BIW 8 mg (N = 8)) was 7 (88) n (%), the “Dry mouth (drug related AE, all grades)” value (Arm B BIW 8 mg (N = 8)) was 1 (13) n (%) and the “Dry skin (drug related AE, all grades)” value (Arm B BIW 8 mg (N = 8)) was 2 (25) n (%). The “Dysgeusia (drug related AE, all grades)” value (Arm B BIW 8 mg (N = 8)) was 1 (13) n (%), the “Dyspepsia (drug related AE, all grades)” value (Arm B BIW 8 mg (N = 8)) was 0 n (%) and the “Dysphonia (drug related AE, all grades)” value (Arm B BIW 8 mg (N = 8)) was 1 (13) n (%). For the same compound, the “Fatigue (drug related AE, Grade 3 and 4)” value (Arm B BIW 8 mg (N = 8)) was 0 n (%), the “Fatigue (drug related AE, all grades)” value (Arm B BIW 8 mg (N = 8)) was 4 (50) n (%) and the “Flatulence (drug related AE, all grades)” value (Arm B BIW 8 mg (N = 8)) was 2 (25) n (%). For the same compound, the “Hypocalcaemia (drug related AE, Grade 3 and 4)” value (Arm B BIW 8 mg (N = 8)) was 1 (13) n (%), the “Hypocalcaemia (drug related AE, all grades)” value (Arm B BIW 8 mg (N = 8)) was 1 (13) n (%) and the “Hypokalaemia (drug related AE, Grade 3 and 4)” value (Arm B BIW 8 mg (N = 8)) was 0 n (%). The “Hypokalaemia (drug related AE, all grades)” value (Arm B BIW 8 mg (N = 8)) was 2 (25) n (%), the “Hyponatraemia (drug related AE, Grade 3 and 4)” value (Arm B BIW 8 mg (N = 8)) was 1 (13) n (%) and the “Hyponatraemia (drug related AE, all grades)” value (Arm B BIW 8 mg (N = 8)) was 1 (13) n (%). For the same compound, the “Hypophosphataemia (drug related AE, Grade 3 and 4)” value (Arm B BIW 8 mg (N = 8)) was 4 (50) n (%), the “Hypophosphataemia (drug related AE, all grades)” value (Arm B BIW 8 mg (N = 8)) was 5 (63) n (%) and the “Ileus (drug related AE, Grade 3 and 4)” value (Arm B BIW 8 mg (N = 8)) was 0 n (%). For the same compound, the “Increased upper airway secretion (drug related AE, all grades)” value (Arm B BIW 8 mg (N = 8)) was 2 (25) n (%), the “Laryngeal pain (drug related AE, all grades)” value (Arm B BIW 8 mg (N = 8)) was 0 n (%) and the “Leucocytosis (drug related AE, Grade 3 and 4)” value (Arm B BIW 8 mg (N = 8)) was 1 (13) n (%). The “Mouth ulceration (drug related AE, all grades)” value (Arm B BIW 8 mg (N = 8)) was 1 (13) n (%), the “Nausea (drug related AE, Grade 3 and 4)” value (Arm B BIW 8 mg (N = 8)) was 1 (13) n (%) and the “Nausea (drug related AE, all grades)” value (Arm B BIW 8 mg (N = 8)) was 6 (75) n (%). The “Pruritus (drug related AE, Grade 3 and 4)” value (Arm B BIW 8 mg (N = 8)) was 0 n (%), the “Pruritus (drug related AE, all grades)” value (Arm B BIW 8 mg (N = 8)) was 2 (25) n (%) and the “Pulmonary embolism (drug related AE, Grade 3 and 4)” value (Arm B BIW 8 mg (N = 8)) was 0 n (%). The “Rash (drug related AE, all grades)” value (Arm B BIW 8 mg (N = 8)) was 3 (38) n (%), the “Rash maculopapular (drug related AE, all grades)” value (Arm B BIW 8 mg (N = 8)) was 2 (25) n (%) and the “Sinusitis (drug related AE, all grades)” value (Arm B BIW 8 mg (N = 8)) was 0 n (%). The “Urticaria (drug related AE, Grade 3 and 4)” value (Arm B BIW 8 mg (N = 8)) was 0 n (%).
